Test results: patent US12384969B2, “Enhancement of soil characteristics with lactobionate compounds” (Leprino Foods Company, priority 2017, dated 2025)
One block for each molecule: values may come before it.

Legend:
soil microbial biomass = test: Soil microbial biomass carbon (MBC), chloroform-fumigation extraction, two-month laboratory soil incubation
[1] = Water absorbed after exposure to 100% relative humidity for 4 hours (FIG. 6); format: physicochemical; conditions: nine substances plus control
Text: When one of the hydroxyl groups occurs in the alpha position, the PHA is a polyhydroxy alpha-hydroxy acid (AHA); when an additional sugar is attached to the PHA structure the molecule is a bionic acid. […] The multiple hydroxyl groups in PHAs attract and hydrogen bond surrounding water molecules, which increase the humectant properties of the compounds.

[2] = Akron, CO (Ak) soil, HC, 1 month
[3] = Akron, CO (Ak) soil, LC, 1 month
[4] = Fresno, CA (Fr) soil, HC, 1 month
[5] = Fresno, CA (Fr) soil, HC, 2 wks
[6] = Fresno, CA (Fr) soil, LC, 1 month
[7] = Fresno, CA (Fr) soil, LC, 2 wks

Compound: O=C([O-])[C@H](O)[C@@H](O)[C@H](O[C@@H]1O[C@H](CO)[C@H](O)[C@H](O)[C@H]1O)[C@H](O)CO.O=C([O-])[C@H](O)[C@@H](O)[C@H](O[C@@H]1O[C@H](CO)[C@H](O)[C@H](O)[C@H]1O)[C@H](O)CO.[Ca+2] [Ca-LB, calcium lactobionate]
MBC (soil microbial biomass; [2]): 6395.35^CDE mg C kg -soil
MBC (soil microbial biomass; Akron, CO (Ak) soil, HC, 2 wks): 9197.28^ABC mg C kg -soil
MBC (soil microbial biomass; [3]): 9816.22^C mg C kg -soil
MBC (soil microbial biomass; Akron, CO (Ak) soil, LC, 2 wks): 13087.10^A mg C kg -soil
MBC (soil microbial biomass; [4]): 11289.89^BC mg C kg -soil
MBC (soil microbial biomass; [5]): 10362.94^A mg C kg -soil
MBC (soil microbial biomass; [6]): 7560.73^CD mg C kg -soil
MBC (soil microbial biomass; [7]): 10133.11^A mg C kg -soil

Compound: O=C([O-])[C@H](O)[C@@H](O)[C@H](O[C@@H]1O[C@H](CO)[C@H](O)[C@H](O)[C@H]1O)[C@H](O)CO.[K+] [K-LB, potassium lactobionate]
MBC (soil microbial biomass; [2]): 7790.40^CD mg C kg -soil
MBC (soil microbial biomass; Akron, CO (Ak) soil, HC, 2 wks): 8349.51^AC mg C kg -soil
MBC (soil microbial biomass; [3]): 10597.30^BC mg C kg -soil
MBC (soil microbial biomass; Akron, CO (Ak) soil, LC, 2 wks): 11189.75^A mg C kg -soil
MBC (soil microbial biomass; [4]): 16689.85^AB mg C kg -soil
MBC (soil microbial biomass; [5]): 1369.60^A mg C kg -soil
MBC (soil microbial biomass; [6]): 7277.63^CD mg C kg -soil
MBC (soil microbial biomass; [7]): 12167.76^A mg C kg -soil

Weight of water absorbed per mole of substance [1]: highest
Compound: O=C(O)[C@H](O)[C@@H](O)[C@H](O[C@@H]1O[C@H](CO)[C@H](O)[C@H](O)[C@H]1O)[C@H](O)CO [LBA, lactobionic acid]

Compound: N.O=C(O)[C@H](O)[C@@H](O)[C@H](O[C@@H]1O[C@H](CO)[C@H](O)[C@H](O)[C@H]1O)[C@H](O)CO [NH4-LB, ammonium lactobionate]
MBC (soil microbial biomass; [2]): 869.62^EF mg C kg -soil
MBC (soil microbial biomass; Akron, CO (Ak) soil, HC, 2 wks): 11037.60^A mg C kg -soil
MBC (soil microbial biomass; [3]): 3225.38^DEF mg C kg -soil
MBC (soil microbial biomass; Akron, CO (Ak) soil, LC, 2 wks): 9911.52^A mg C kg -soil
MBC (soil microbial biomass; [4]): 18504.80^A mg C kg -soil
MBC (soil microbial biomass; [5]): 13627.26^A mg C kg -soil
MBC (soil microbial biomass; [6]): 739.12^EF mg C kg -soil
MBC (soil microbial biomass; [7]): 8610.50^AC mg C kg -soil
Total MBC compared between LB amendments (soil microbial biomass; at 1 month): lower
